Assay results: patent US11590128B2, “Combination therapy of a type II anti-CD20 antibody with a selective BCL-2 inhibitor” (GENENTECH, INC., priority 2012, dated 2023)

Tests used:
[1] = system: human Z138 mantle cell lymphoma cells; experiment: Tumor growth inhibition study in vivo, Z138 mantle cell lymphoma xenograft, Example 3; design: species or system SCID beige mice; conditions: day 35 after tumor cell inoculation; antibodies 1 mg/kg i.p. once weekly x3; GDC-0199 100 mg/kg p.o. once daily for 17 days
Experimental: Animals. […] Continuous health monitoring was carried out on regular basis.
Monitoring. Animals were controlled daily for clinical symptoms and detection of adverse effects.
Treatment of animals. […] The corresponding vehicle was administered on the same days.

[2] = system: SU.DHL-4 diffuse large B-cell lymphoma xenograft; experiment: NHL xenograft model of aggressive lymphoma (DLBCL SU.DHL-4), Example 1; type: in vivo, mice
Description: The study used a non-Hodgkin's lymphoma (NHL) xenograft model of aggressive lymphoma, the diffuse large B-cell lymphoma (DLBCL) derived cell line SU.DHL-4.
In FIG. 1, the dose of GDC-0199 is expressed as free base equivalents in mg/kg of body weight. Results are expressed as the fitted tumor volume as determined by linear mixed effects modeling for each treatment group vs. time in days, where Day 0 is the first day of treatment.

DLBCL SU-DHL-4 xenograft = DLBCL SU-DHL-4 xenograft model, combination followed by single-agent GDC-0199, Example 4; type: in vivo, mice; conditions: GDC-0199 orally for 21 days, GA101 1 mg/kg QW for 3 weeks; alone or in combination
Experimental: At day 22 tumor bearing mice in the combination cohort continued to be dosed with GDC-0199 alone at 100 mg/kg for an additional 24 days.
As explained above, a cohort of tumor bearing mice was also dosed with GDC-0199 alone for an additional 24 days after combination treatment ended on day 21 (QD×45). Under the x-axis, treatment periods are denoted by solid black lines ( ? ) for the combination cohorts while the continued single agent GDC-0199 treatment is denoted by dashed black line ( ? ).

Compound | tumor growth inhibition compared to the control group [1] | tumor growth inhibition (TGI) ([2]; after three weeks of therapy (treatment ended day 21)) | tumor growth inhibition (TGI) ([2]; at day 31 (10 days after dosing ended)) | antitumor outcome (in words) ([2]; obinutuzumab 1 mg/kg IV once a week for 3 weeks, GDC-0199 100 mg/kg QD for 21 days, alone or combined) | tumor growth inhibition (TGI) (DLBCL SU-DHL-4 xenograft)
CC1(C)CCC(CN2CCN(c3ccc(C(=O)NS(=O)(=O)c4ccc(NCC5CCOCC5)c([N+](=O)[O-])c4)c(Oc4cnc5[nH]ccc5c4)c3)CC2)=C(c2ccc(Cl)cc2)C1 [GDC-0199, 2-(1H-pyrrolo[2,3-b]pyridin-5-yloxy)-4-(4-((2-(4-chlorophenyl)-4,4-dimethylcyclohex-1-enyl)methyl)piperazin-1-yl)-N-(3-nitro-4-(((tetrahydro-2H-pyran-4-yl)methyl)amino)phenylsulfonyl)benzamide] | 59% | 80% | 25% | stasis followed by tumor growth delay | 24%
rituximab: type I anti-CD20 antibody | 32% |  |  |  | 
